# System: incision wounds
# Assay: Wound healing of incision wounds in mice
# Format: in vivo
# Details: incision wounds swabbed daily, scored after 5 days
# Excerpt: In mice, incision wounds to the flanks (six 1.5 cm wounds per animal) were swabbed daily with either a solution containing GHL-Cu (100 micrograms per mL) in phosphate-buffered saline (PBS) or PBS alone (6 animals each group). After 5 days, the wounds were scored 1.0 for complete closure, 0.5 for partial closure, and 0.0 for non-closure.
row,Substance,healing of wounds in mice
1,glycyl-L-histidyl-L-lysine n-palmityl ester: copper (II),significantly enhances the wound-healing process
2,glycyl-L-histidyl-L-lysine n-stearyl ester: copper (II),significantly enhances the wound-healing process
